In ChEMBL document CHEMBL4627246, “Pyroglutamide-Based P2X7 Receptor Antagonists Targeting Inflammatory Bowel Disease” (J Med Chem, 2020):

What follows are compounds tested on TK-10 (assay: Cytotoxicity against human TK10 cells assessed as effect on cell growth at 10 uM incubated for 48 hrs by sulforhodamine B assay). Settings: tk-10, 48 h.
Type: cell-based

| Compound | Activity |
| --- | --- |
| O=C(NCc1ccccc1Cl)[C@@H]1CCC(=O)N1Cc1ccccc1 | Non-Toxic |
| O=C(NCc1ccc(Cl)cc1Cl)[C@@H]1CCC(=O)N1c1cccs1 | Non-Toxic |
| CN(C)/C=C1\C[C@H]2C(=O)N(Cc3ccccc3Cl)C(N(C)C)N2C1=O (stereo not given in full) | Non-Toxic |
| O=C(Nc1ccc(Cl)cc1Cl)[C@@H]1CCC(=O)N1Cc1ccccc1Cl | Non-Toxic |

These compounds were tested on MDA-MB-468 (assay: Cytotoxicity against human MDA-MB-468 cells assessed as effect on cell growth at 10 uM incubated for 48 hrs by sulforhodamine B assay). Settings: mda-mb-468, 48 h.
Type: cell-based

| Compound | Activity |
| --- | --- |
| O=C(NCc1ccccc1Cl)[C@@H]1CCC(=O)N1Cc1ccccc1 | Non-Toxic |
| O=C(NCc1ccc(Cl)cc1Cl)[C@@H]1CCC(=O)N1c1cccs1 | Non-Toxic |
| CN(C)/C=C1\C[C@H]2C(=O)N(Cc3ccccc3Cl)C(N(C)C)N2C1=O (stereo not given in full) | Non-Toxic |
| O=C(Nc1ccc(Cl)cc1Cl)[C@@H]1CCC(=O)N1Cc1ccccc1Cl | Non-Toxic |

Each compound was assayed on HCC 2998 (assay: Cytotoxicity against human HCC2998 cells assessed as effect on cell growth at 10 uM incubated for 48 hrs by sulforhodamine B assay). Settings: hcc 2998, 48 h.
Type: cell-based

| Compound | Activity |
| --- | --- |
| O=C(NCc1ccccc1Cl)[C@@H]1CCC(=O)N1Cc1ccccc1 | Non-Toxic |
| O=C(NCc1ccc(Cl)cc1Cl)[C@@H]1CCC(=O)N1c1cccs1 | Non-Toxic |
| CN(C)/C=C1\C[C@H]2C(=O)N(Cc3ccccc3Cl)C(N(C)C)N2C1=O (stereo not given in full) | Non-Toxic |
| O=C(Nc1ccc(Cl)cc1Cl)[C@@H]1CCC(=O)N1Cc1ccccc1Cl | Non-Toxic |

These compounds were tested on PC-3 (assay: Cytotoxicity against human PC3 cells assessed as effect on cell growth at 10 uM incubated for 48 hrs by sulforhodamine B assay). Settings: pc-3, 48 h.
Type: cell-based

| Compound | Activity |
| --- | --- |
| O=C(NCc1ccccc1Cl)[C@@H]1CCC(=O)N1Cc1ccccc1 | Non-Toxic |
| O=C(NCc1ccc(Cl)cc1Cl)[C@@H]1CCC(=O)N1c1cccs1 | Non-Toxic |
| CN(C)/C=C1\C[C@H]2C(=O)N(Cc3ccccc3Cl)C(N(C)C)N2C1=O (stereo not given in full) | Non-Toxic |
| O=C(Nc1ccc(Cl)cc1Cl)[C@@H]1CCC(=O)N1Cc1ccccc1Cl | Non-Toxic |

What follows are compounds tested on HCT-116 (assay: Cytotoxicity against human HCT116 cells assessed as effect on cell growth at 10 uM incubated for 48 hrs by sulforhodamine B assay). Settings: hct-116, 48 h.
Type: cell-based

| Compound | Activity |
| --- | --- |
| O=C(NCc1ccccc1Cl)[C@@H]1CCC(=O)N1Cc1ccccc1 | Non-Toxic |
| O=C(NCc1ccc(Cl)cc1Cl)[C@@H]1CCC(=O)N1c1cccs1 | Non-Toxic |
| CN(C)/C=C1\C[C@H]2C(=O)N(Cc3ccccc3Cl)C(N(C)C)N2C1=O (stereo not given in full) | Non-Toxic |
| O=C(Nc1ccc(Cl)cc1Cl)[C@@H]1CCC(=O)N1Cc1ccccc1Cl | Non-Toxic |

These compounds were tested on NCI-H322M (assay: Cytotoxicity against human NCI-H322M cells assessed as effect on cell growth at 10 uM incubated for 48 hrs by sulforhodamine B assay). Settings: not given.
Type: cell-based

| Compound | Activity |
| --- | --- |
| O=C(NCc1ccccc1Cl)[C@@H]1CCC(=O)N1Cc1ccccc1 | Non-Toxic |
| O=C(NCc1ccc(Cl)cc1Cl)[C@@H]1CCC(=O)N1c1cccs1 | Non-Toxic |
| CN(C)/C=C1\C[C@H]2C(=O)N(Cc3ccccc3Cl)C(N(C)C)N2C1=O (stereo not given in full) | Non-Toxic |
| O=C(Nc1ccc(Cl)cc1Cl)[C@@H]1CCC(=O)N1Cc1ccccc1Cl | Non-Toxic |

These compounds were tested on U-251 (assay: Cytotoxicity against human U251 cells assessed as effect on cell growth at 10 uM incubated for 48 hrs by sulforhodamine B assay). Settings: u-251, 48 h.
Type: cell-based

| Compound | Activity |
| --- | --- |
| O=C(NCc1ccccc1Cl)[C@@H]1CCC(=O)N1Cc1ccccc1 | Non-Toxic |
| O=C(NCc1ccc(Cl)cc1Cl)[C@@H]1CCC(=O)N1c1cccs1 | Non-Toxic |
| CN(C)/C=C1\C[C@H]2C(=O)N(Cc3ccccc3Cl)C(N(C)C)N2C1=O (stereo not given in full) | Non-Toxic |
| O=C(Nc1ccc(Cl)cc1Cl)[C@@H]1CCC(=O)N1Cc1ccccc1Cl | Non-Toxic |

These compounds were tested on HT-29 (assay: Cytotoxicity against human HT-29 cells assessed as effect on cell growth at 10 uM incubated for 48 hrs by sulforhodamine B assay). Settings: ht-29, 48 h.
Type: cell-based

| Compound | Activity |
| --- | --- |
| O=C(NCc1ccccc1Cl)[C@@H]1CCC(=O)N1Cc1ccccc1 | Non-Toxic |
| O=C(NCc1ccc(Cl)cc1Cl)[C@@H]1CCC(=O)N1c1cccs1 | Non-Toxic |
| CN(C)/C=C1\C[C@H]2C(=O)N(Cc3ccccc3Cl)C(N(C)C)N2C1=O (stereo not given in full) | Non-Toxic |
| O=C(Nc1ccc(Cl)cc1Cl)[C@@H]1CCC(=O)N1Cc1ccccc1Cl | Non-Toxic |

What follows are compounds tested on COLO 205 (assay: Cytotoxicity against human COLO205 cells assessed as effect on cell growth at 10 uM incubated for 48 hrs by sulforhodamine B assay). Settings: colo 205, 48 h.
Type: cell-based

| Compound | Activity |
| --- | --- |
| O=C(NCc1ccccc1Cl)[C@@H]1CCC(=O)N1Cc1ccccc1 | Non-Toxic |
| O=C(NCc1ccc(Cl)cc1Cl)[C@@H]1CCC(=O)N1c1cccs1 | Non-Toxic |
| CN(C)/C=C1\C[C@H]2C(=O)N(Cc3ccccc3Cl)C(N(C)C)N2C1=O (stereo not given in full) | Non-Toxic |
| O=C(Nc1ccc(Cl)cc1Cl)[C@@H]1CCC(=O)N1Cc1ccccc1Cl | Non-Toxic |

The compounds below were run on NCI/ADR-RES (assay: Cytotoxicity against human NCI/ADR-RES cells assessed as effect on cell growth at 10 uM incubated for 48 hrs by sulforhodamine B assay). Settings: not given.
Type: cell-based

| Compound | Activity |
| --- | --- |
| O=C(NCc1ccccc1Cl)[C@@H]1CCC(=O)N1Cc1ccccc1 | Non-Toxic |
| O=C(NCc1ccc(Cl)cc1Cl)[C@@H]1CCC(=O)N1c1cccs1 | Non-Toxic |
| CN(C)/C=C1\C[C@H]2C(=O)N(Cc3ccccc3Cl)C(N(C)C)N2C1=O (stereo not given in full) | Non-Toxic |
| O=C(Nc1ccc(Cl)cc1Cl)[C@@H]1CCC(=O)N1Cc1ccccc1Cl | Non-Toxic |

These compounds were tested on NCI-H23 (assay: Cytotoxicity against human NCI-H23 cells assessed as effect on cell growth at 10 uM incubated for 48 hrs by sulforhodamine B assay). Settings: nci-h23, 48 h.
Type: cell-based

| Compound | Activity |
| --- | --- |
| O=C(NCc1ccccc1Cl)[C@@H]1CCC(=O)N1Cc1ccccc1 | Non-Toxic |
| O=C(NCc1ccc(Cl)cc1Cl)[C@@H]1CCC(=O)N1c1cccs1 | Non-Toxic |
| CN(C)/C=C1\C[C@H]2C(=O)N(Cc3ccccc3Cl)C(N(C)C)N2C1=O (stereo not given in full) | Non-Toxic |
| O=C(Nc1ccc(Cl)cc1Cl)[C@@H]1CCC(=O)N1Cc1ccccc1Cl | Non-Toxic |

What follows are compounds tested on HOP-92 (assay: Cytotoxicity against human HOP92 cells assessed as effect on cell growth at 10 uM incubated for 48 hrs by sulforhodamine B assay). Settings: hop-92, 48 h.
Type: cell-based

| Compound | Activity |
| --- | --- |
| O=C(NCc1ccccc1Cl)[C@@H]1CCC(=O)N1Cc1ccccc1 | Non-Toxic |
| O=C(NCc1ccc(Cl)cc1Cl)[C@@H]1CCC(=O)N1c1cccs1 | Non-Toxic |
| CN(C)/C=C1\C[C@H]2C(=O)N(Cc3ccccc3Cl)C(N(C)C)N2C1=O (stereo not given in full) | Non-Toxic |
| O=C(Nc1ccc(Cl)cc1Cl)[C@@H]1CCC(=O)N1Cc1ccccc1Cl | Non-Toxic |

What follows are compounds tested on NCI-H522 (assay: Cytotoxicity against human NCI-H522 cells assessed as effect on cell growth at 10 uM incubated for 48 hrs by sulforhodamine B assay). Settings: nci-h522, 48 h.
Type: cell-based

| Compound | Activity |
| --- | --- |
| O=C(NCc1ccccc1Cl)[C@@H]1CCC(=O)N1Cc1ccccc1 | Non-Toxic |
| O=C(NCc1ccc(Cl)cc1Cl)[C@@H]1CCC(=O)N1c1cccs1 | Non-Toxic |
| CN(C)/C=C1\C[C@H]2C(=O)N(Cc3ccccc3Cl)C(N(C)C)N2C1=O (stereo not given in full) | Non-Toxic |
| O=C(Nc1ccc(Cl)cc1Cl)[C@@H]1CCC(=O)N1Cc1ccccc1Cl | Non-Toxic |

These compounds were tested on OVCAR-8 (assay: Cytotoxicity against human OVCAR8 cells assessed as effect on cell growth at 10 uM incubated for 48 hrs by sulforhodamine B assay). Settings: ovcar-8, 48 h.
Type: cell-based

| Compound | Activity |
| --- | --- |
| O=C(NCc1ccccc1Cl)[C@@H]1CCC(=O)N1Cc1ccccc1 | Non-Toxic |
| O=C(NCc1ccc(Cl)cc1Cl)[C@@H]1CCC(=O)N1c1cccs1 | Non-Toxic |
| CN(C)/C=C1\C[C@H]2C(=O)N(Cc3ccccc3Cl)C(N(C)C)N2C1=O (stereo not given in full) | Non-Toxic |
| O=C(Nc1ccc(Cl)cc1Cl)[C@@H]1CCC(=O)N1Cc1ccccc1Cl | Non-Toxic |

The compounds below were run on SNB-19 (assay: Cytotoxicity against human SNB19 cells assessed as effect on cell growth at 10 uM incubated for 48 hrs by sulforhodamine B assay). Settings: snb-19, 48 h.
Type: cell-based

| Compound | Activity |
| --- | --- |
| O=C(NCc1ccccc1Cl)[C@@H]1CCC(=O)N1Cc1ccccc1 | Non-Toxic |
| O=C(NCc1ccc(Cl)cc1Cl)[C@@H]1CCC(=O)N1c1cccs1 | Non-Toxic |
| CN(C)/C=C1\C[C@H]2C(=O)N(Cc3ccccc3Cl)C(N(C)C)N2C1=O (stereo not given in full) | Non-Toxic |
| O=C(Nc1ccc(Cl)cc1Cl)[C@@H]1CCC(=O)N1Cc1ccccc1Cl | Non-Toxic |

Each compound was assayed on UACC-62 (assay: Cytotoxicity against human UACC62 cells assessed as effect on cell growth at 10 uM incubated for 48 hrs by sulforhodamine B assay). Settings: uacc-62, 48 h.
Type: cell-based

| Compound | Activity |
| --- | --- |
| O=C(NCc1ccccc1Cl)[C@@H]1CCC(=O)N1Cc1ccccc1 | Non-Toxic |
| O=C(NCc1ccc(Cl)cc1Cl)[C@@H]1CCC(=O)N1c1cccs1 | Non-Toxic |
| CN(C)/C=C1\C[C@H]2C(=O)N(Cc3ccccc3Cl)C(N(C)C)N2C1=O (stereo not given in full) | Non-Toxic |
| O=C(Nc1ccc(Cl)cc1Cl)[C@@H]1CCC(=O)N1Cc1ccccc1Cl | Non-Toxic |

The compounds below were run on IGROV-1 (assay: Cytotoxicity against human IGROV1 cells assessed as effect on cell growth at 10 uM incubated for 48 hrs by sulforhodamine B assay). Settings: igrov-1, 48 h.
Type: cell-based

| Compound | Activity |
| --- | --- |
| O=C(NCc1ccccc1Cl)[C@@H]1CCC(=O)N1Cc1ccccc1 | Non-Toxic |
| O=C(NCc1ccc(Cl)cc1Cl)[C@@H]1CCC(=O)N1c1cccs1 | Non-Toxic |
| CN(C)/C=C1\C[C@H]2C(=O)N(Cc3ccccc3Cl)C(N(C)C)N2C1=O (stereo not given in full) | Non-Toxic |
| O=C(Nc1ccc(Cl)cc1Cl)[C@@H]1CCC(=O)N1Cc1ccccc1Cl | Non-Toxic |

Each compound was assayed on T47D (assay: Cytotoxicity against human T47D cells assessed as effect on cell growth at 10 uM incubated for 48 hrs by sulforhodamine B assay). Settings: not given.
Type: cell-based

| Compound | Activity |
| --- | --- |
| O=C(NCc1ccccc1Cl)[C@@H]1CCC(=O)N1Cc1ccccc1 | Non-Toxic |
| O=C(NCc1ccc(Cl)cc1Cl)[C@@H]1CCC(=O)N1c1cccs1 | Non-Toxic |
| CN(C)/C=C1\C[C@H]2C(=O)N(Cc3ccccc3Cl)C(N(C)C)N2C1=O (stereo not given in full) | Non-Toxic |
| O=C(Nc1ccc(Cl)cc1Cl)[C@@H]1CCC(=O)N1Cc1ccccc1Cl | Non-Toxic |

These compounds were tested on SNB-75 (assay: Cytotoxicity against human SNB75 cells assessed as effect on cell growth at 10 uM incubated for 48 hrs by sulforhodamine B assay). Settings: snb-75, 48 h.
Type: cell-based

| Compound | Activity |
| --- | --- |
| O=C(NCc1ccccc1Cl)[C@@H]1CCC(=O)N1Cc1ccccc1 | Non-Toxic |
| O=C(NCc1ccc(Cl)cc1Cl)[C@@H]1CCC(=O)N1c1cccs1 | Non-Toxic |
| CN(C)/C=C1\C[C@H]2C(=O)N(Cc3ccccc3Cl)C(N(C)C)N2C1=O (stereo not given in full) | Non-Toxic |
| O=C(Nc1ccc(Cl)cc1Cl)[C@@H]1CCC(=O)N1Cc1ccccc1Cl | Non-Toxic |

What follows are compounds tested on Malme-3M (assay: Cytotoxicity against human MALME-3M cells assessed as effect on cell growth at 10 uM incubated for 48 hrs by sulforhodamine B assay). Settings: not given.
Type: cell-based

| Compound | Activity |
| --- | --- |
| O=C(NCc1ccccc1Cl)[C@@H]1CCC(=O)N1Cc1ccccc1 | Non-Toxic |
| O=C(NCc1ccc(Cl)cc1Cl)[C@@H]1CCC(=O)N1c1cccs1 | Non-Toxic |
| CN(C)/C=C1\C[C@H]2C(=O)N(Cc3ccccc3Cl)C(N(C)C)N2C1=O (stereo not given in full) | Non-Toxic |
| O=C(Nc1ccc(Cl)cc1Cl)[C@@H]1CCC(=O)N1Cc1ccccc1Cl | Non-Toxic |
